The values that follow come from US20210255193A1, “LYSINE REACTIVE PROBES AND USES THEREOF” (The Scripps Research Institute, priority 2017, published 2021).

For test [1], the target named is T1, AGFG1 Arf-GAP domain and FG repeat-containing protein 1 (Homo sapiens, UniProt P52594).
T1 construct: isoTOP-ABPP experiments performed in cell lysates (in vitro); endogenous in cells; host or cells: soluble proteome of human cancer cell lines (MDA-MB-231, Ramos, Jurkat)
T1 sequence (P52594 1-562): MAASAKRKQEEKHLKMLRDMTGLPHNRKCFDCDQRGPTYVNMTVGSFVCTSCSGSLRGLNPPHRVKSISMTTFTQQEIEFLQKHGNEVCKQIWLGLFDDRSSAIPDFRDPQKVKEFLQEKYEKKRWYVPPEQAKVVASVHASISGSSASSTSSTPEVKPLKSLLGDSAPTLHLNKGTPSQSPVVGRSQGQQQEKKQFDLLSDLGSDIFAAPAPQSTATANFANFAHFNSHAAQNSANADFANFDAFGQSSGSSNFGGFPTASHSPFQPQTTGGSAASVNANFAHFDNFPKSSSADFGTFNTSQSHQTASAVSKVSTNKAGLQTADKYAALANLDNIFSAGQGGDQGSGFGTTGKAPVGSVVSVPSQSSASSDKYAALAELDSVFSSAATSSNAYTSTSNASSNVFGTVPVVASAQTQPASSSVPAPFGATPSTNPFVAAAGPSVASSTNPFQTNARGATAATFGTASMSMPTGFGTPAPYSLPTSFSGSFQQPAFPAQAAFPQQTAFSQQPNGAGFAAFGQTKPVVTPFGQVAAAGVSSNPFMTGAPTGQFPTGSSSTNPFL
Nature of the test: competitive isoTOP-ABPP. More on the design: key to isoTOP-ABPP reactivity ratio at lysine P52594_K134: R = MS1 peak area ratio, DMSO (heavy) / compound-treated (light). To be noted: 50 uM, 231 sol, in vitro; for R value (DMSO/fragment) for probe 1 labeling: P52594_K134. Type of test: binding. As for the experimental part: (§1) In vitro covalent fragment treatment for isoTOP-ABPP. All compounds were made up as solutions in DMSO (100×) and were used at a final concentration of 50 μM for activated esters and 100 μM for guanidinylating agents. For each profiling sample, 0.5 ml of lysate was treated with 5 μl of the 100× compound stock solution or 5 μl of DMSO. Samples were treated with activated esters for
(§2) STP-alkyne labeling and click chemistry. For concentration-dependent reactivity measurements by isoTOP-ABPP, 0.5 ml proteome aliquots were treated at ambient temperature with 1 mM STP-alkyne 1 (5 μl of 100 mM stock in DMSO) and 0.1 mM STP alkyne 1 (5 μl of 10 mM stock in DMSO), respectively. For competitive isoTOP-ABPP, after in vitro fragment treatment (detailed above), the samples were labeled for 1 h at ambient temperature with 0.1 mM STP-alkyne 1 (5 μl of 10 mM stock in DMSO). Samples were conjugated by copper-mediated azide-alkyne cycloaddition (CuAAC) to either the light (1 mM STP-alkyne or fragment treated) or heavy (0.1 mM STP-alkyne or DMSO treated) TEV tags (10 μl of 5 mM stocks in DMSO, final concentration=100 μM) using tris(2-carboxyethyl)phosphine hydrochloride
(§3) R value calculation and processing. The ratios of light and heavy MS1 peaks for each unique peptide were quantified with a CIMAGE software using default parameters (3 MS1 acquisitions per peak and signal to noise threshold set to 2.5). For reactivity measurements by isoTOP-ABPP, the R value was calculated from the ratio of MS1 peak areas, comparing the 1 mM STP alkyne sample (light TEV tag) with the 0.1 mM STP alkyne sample (heavy TEV tag). For competitive isoTOP-ABPP, the R value was calculated from the ratio of MS1 peak areas, comparing the DMSO treated sample (heavy TEV tag) with the compound treated sample (light TEV tag). […] Ratios for unique peptide entries are calculated for each experiment; overlapping peptides with the same modified lysine (for example, different charge states, MudPIT chromatographic steps or tryptic termini) are grouped together and the median ratio is reported as the final ratio (R). The peptide ratios reported by CIMAGE were further filtered to ensure the removal or correction of low-quality ratios in each individual data set. The quality filters applied were the following: removal of half tryptic peptides; for ratios with high standard deviations from the median (90% of the median or above) the lowest ratio was taken instead of the median; removal of peptides with R=20 and only a single MS2 event triggered during the elution of the parent ion; manual annotation of all the peptides with ratios of 20, removing any peptides with low quality elution profiles that remained after the previous curation steps (only done for competitive isoTOP-ABPP).
(§4) Cross-data processing for fragment screening. For compound treated samples, biological replicates of the same condition were averaged, if the standard deviation was below 60% of the mean; otherwise, for lysines with at least one R value <4 for a particular compound, the lowest value of the ratio set was taken. For lysines, where all R values for a particular compound were ≥4, the average was reported. For peptides containing several possible modified lysines, the lysine with the highest number of quantification events was used for analysis and the remaining, redundant peptides were reported as alternative modification sites. Peptides included in the aggregate dataset (those used for further bioinformatics and statistical analyses) were required to have been quantified in 2 experiments for competitive isoTOP-ABPP. Lysines were categorized as liganded, if they had at least one ratio R≥4 (hit fragments). For liganded lysines with R=20 for all liganding events, lysines were required to have been quantified with R=20 in two separate experiments and were further required to have been quantified with R<20 in one additional experiment.

The target of test [2] is T2, ABHD10 Abhydrolase domain-containing protein 10, mitochondrial (Homo sapiens, UniProt Q9NUJ1).
T2 construct: endogenous in cells; host or cells: MDA-MB-231 lysate
T2 sequence (Q9NUJ1 53-306): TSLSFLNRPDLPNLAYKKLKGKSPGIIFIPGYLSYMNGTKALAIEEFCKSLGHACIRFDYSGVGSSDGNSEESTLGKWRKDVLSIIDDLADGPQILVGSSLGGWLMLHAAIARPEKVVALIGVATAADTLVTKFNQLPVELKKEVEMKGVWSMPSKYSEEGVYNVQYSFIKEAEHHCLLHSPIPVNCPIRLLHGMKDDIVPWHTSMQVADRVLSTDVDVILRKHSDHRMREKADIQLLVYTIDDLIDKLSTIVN
The test is described as follows: competitive isoTOP-ABPP. To be noted: for R value (DMSO/fragment) for probe 1 labeling: Q9NUJ1_K185; for R value (DMSO/fragment) for probe 1 labeling / isoTOP-ABPP reactivity ratio at lysine Q9NUJ1_K185: 231 sol. More on the design: key to isoTOP-ABPP reactivity ratio at lysine Q9NUJ1_K185: R = MS1 peak area ratio, DMSO (heavy) / compound-treated (light); capped at 20. Type of test: binding. As for the experimental part: as §1, §2, §3, §4

Turning to `O=C(CCc1cn(-c2ccccc2)nc1-c1ccccc1)Oc1c(F)c(F)c(F)c(F)c1F` [fragment 19, Pentafluorophenyl 3-(1,3-diphenyl-1H-pyrazol-4-yl)propanoate], the “R value (DMSO/fragment) for probe 1 labeling” value (from here on “R value (DMSO/fragment)”) amounted to 1.0 in test [1] and 1.2 in test [2] (50 uM, in vitro).
Taken in the same sequence, the figures for `O=C(Oc1c(F)c(F)c(F)c(F)c1F)C(c1ccccc1)c1ccccc1` [fragment 20, Pentafluorophenyl 2,2-diphenylacetate] were 1.0 and 1.1.
Turning to `O=C(Oc1c(F)c(F)c(F)c(F)c1F)c1cc(C(F)(F)F)cc(C(F)(F)F)c1` [fragment 21, Pentafluorophenyl 3,5-bis(trifluoromethyl)benzoate], the “R value (DMSO/fragment)” value in test [2] (50 uM, in vitro) is 4.7.
As to `Cn1cc(CC(=O)Oc2c(F)c(F)c(F)c(F)c2F)c2ccccc21` [fragment 22, Pentafluorophenyl 2-(1-methyl-1H-indol-3-yl)acetate], the “R value (DMSO/fragment)” value in test [1] worked out at 1.4; in test [2] (50 uM, in vitro) it was 1.5.
Taken in the same sequence, the figures for `COc1cc(CCC(=O)Oc2c(F)c(F)c(F)c(F)c2F)cc(OC)c1OC` [fragment 23, Pentafluorophenyl 3-(3,4,5-trimethoxyphenyl)propanoate] were 1.7 and 2.0.
`O=C(Oc1c(F)c(F)c(F)c(F)c1F)C1CCN(C(=O)OCc2ccccc2)CC1` [fragment 24, 1-Benzyl 4-(pentafluorophenyl) piperidine-1,4-dicarboxylate]: the “isoTOP-ABPP reactivity ratio at lysine P52594_K134” value in test [1] worked out at 1.5.
`O=C(Oc1c(F)c(F)c(F)c(F)c1F)c1ccc2ccccc2n1` [fragment 25, Pentafluorophenyl quinoline-2-carboxylate]: in test [1], the “isoTOP-ABPP reactivity ratio at lysine P52594_K134” value is listed as 1.1. Besides, the “isoTOP-ABPP reactivity ratio at lysine Q9NUJ1_K185” value in test [2] (50 uM, in vitro) was found to be 1.5.
In the same order, the values of `O=C(CCc1coc2cc(F)ccc2c1=O)Oc1c(F)c(F)c(F)c(F)c1F` [fragment 26, Pentafluorophenyl 3-(7-fluoro-4-oxo-4H-chromen-3-yl)propanoate] are 2.2 and 1.5.
`O=C(CN1C(=O)c2ccccc2C1=O)Oc1c(F)c(F)c(F)c(F)c1F` [fragment 27, Pentafluorophenyl 2-(1,3-dioxoisoindolin-2-yl)acetate]: the “isoTOP-ABPP reactivity ratio at lysine P52594_K134” value in test [1] is recorded as 1.5. Besides, the “isoTOP-ABPP reactivity ratio at lysine Q9NUJ1_K185” value in test [2] (50 uM, in vitro) amounted to 1.9.
Taken in the same sequence, the figures for `CCn1cc(C(=O)Oc2c(F)c(F)c(F)c(F)c2F)c(=O)c2ccc(C)nc21` [fragment 28, Pentafluorophenyl 1-ethyl-7-methyl-4-oxo-1,4-dihydro-1,8-naphthyridine-3-carboxylate] were 1.0 and 1.2.
In the same order, the values of `O=C(CCc1cn(-c2ccccc2)nc1-c1ccccc1)Oc1ccc([N+](=O)[O-])cc1[N+](=O)[O-]` [fragment 29, 2,4-Dinitrophenyl 3-(1,3-diphenyl-1H-pyrazol-4-yl)propanoate] are 1.4 and 1.3.
Turning to `O=C(Oc1ccc([N+](=O)[O-])cc1[N+](=O)[O-])C(c1ccccc1)c1ccccc1` [fragment 30, 2,4-Dinitrophenyl 2,2-diphenylacetate], in test [1], the “isoTOP-ABPP reactivity ratio at lysine P52594_K134” value is listed as 14.3. Further, the “isoTOP-ABPP reactivity ratio at lysine Q9NUJ1_K185” value in test [2] (50 uM, in vitro) came to 2.4.
As to `O=C(Oc1ccc([N+](=O)[O-])cc1[N+](=O)[O-])c1ccc2ccccc2n1` [fragment 35, 2,4-Dinitrophenyl quinoline-2-carboxylate], in test [2] (50 uM, in vitro, sol, 231), the “isoTOP-ABPP ratio (R) at liganded lysine Q9NUJ1_K185” value is listed as 1.3.
Turning to `O=C(Oc1c(F)c(F)c(C(F)(F)F)c(F)c1F)c1cc(C(F)(F)F)cc(C(F)(F)F)c1` [fragment 47, 2,3,5,6-Tetrafluoro-4-(trifluoromethyl)phenyl 3,5-bis(trifluoromethyl)benzoate], in test [2] (50 uM_231_sol_in vitro), the “isoTOP-ABPP ratio, lysine Q9NUJ1_K185” value stood at 1.8.
